These results are taken from patent publication US10344039B2, “Macrocyclic spirocarbamate derivatives as factor XIa inhibitors, pharmaceutically acceptable compositions and their use” (MERCK SHARP & DOHME CORP., priority 2015, dated 2019).

Usually Ki stands for the dissociation constant of the complex between target and ligand, obtained from inhibition or displacement.

T1 sequence (P03951 388-625 limits assumed): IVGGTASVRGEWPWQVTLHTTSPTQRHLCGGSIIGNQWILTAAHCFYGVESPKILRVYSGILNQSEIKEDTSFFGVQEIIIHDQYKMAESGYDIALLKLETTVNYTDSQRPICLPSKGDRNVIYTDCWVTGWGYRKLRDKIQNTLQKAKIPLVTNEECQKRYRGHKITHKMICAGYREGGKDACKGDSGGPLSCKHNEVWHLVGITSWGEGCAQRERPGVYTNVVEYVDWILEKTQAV
T1 sequence (P03951 19-387 partner limits assumed): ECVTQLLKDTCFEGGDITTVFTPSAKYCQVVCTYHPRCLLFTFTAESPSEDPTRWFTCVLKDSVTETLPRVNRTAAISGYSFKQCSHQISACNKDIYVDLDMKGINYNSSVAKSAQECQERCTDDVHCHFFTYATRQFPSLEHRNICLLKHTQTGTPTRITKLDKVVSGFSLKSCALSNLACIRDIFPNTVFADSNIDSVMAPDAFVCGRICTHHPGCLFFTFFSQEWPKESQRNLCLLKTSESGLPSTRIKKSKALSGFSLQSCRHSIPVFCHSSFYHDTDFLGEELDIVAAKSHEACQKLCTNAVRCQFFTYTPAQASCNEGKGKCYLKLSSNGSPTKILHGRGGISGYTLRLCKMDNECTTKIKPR

The assay has as its target T1, purified human Factor XIa (Homo sapiens, UniProt P03951).
T1 construct: purified human Factor XIa; purchased Sekisui Diagnostics
Nature of the assay: Factor XIa Assay. Format: biochemical. The conditions noted are these: purified human Factor XIa 40 pM; substrate Z-Gly-Pro-Arg-AFC 100 μM; 50 mM HEPES pH 7.4; read-out: Hu FXIa Ki. How it is done: The effectiveness of a compound of the present invention as an inhibitor of Coagulation Factor XIa can be determined using a relevant purified serine protease, and an appropriate synthetic substrate. The rate of hydrolysis of the chromogenic or fluorogenic substrate by the relevant serine protease was measured both in the absence and presence of compounds of the present invention. Assays were conducted at room temperature or at 37° C. […] A decrease in the rate of fluorescence change in the presence of inhibitor is indicative of enzyme inhibition. Such methods are known to one skilled in the art. The results of this assay are expressed as the inhibitory constant, Ki.
Factor XIa determinations were made in 50 mM HEPES buffer at pH 7.4 containing 150 mM NaCl, 5 mM CaCl2, and 0.1% PEG 8000 (polyethylene glycol; JT Baker or Fisher Scientific). Determinations were made using purified human Factor XIa at a final concentration of 40 pM (Sekisui Diagnostics) and he synthetic substrate, Z-Gly-Pro-Arg-AFC, TFA salt (Sigma #C0980) at a concentration of 100 μM.
Activity assays were performed by diluting a stock solution of substrate at least tenfold to a final concentration ≤0.1 Km into a solution containing enzyme or enzyme equilibrated with inhibitor. Times required to achieve equilibration between enzyme and inhibitor were determined in control experiments. Initial velocities of product formation in the absence (Vo) or presence of inhibitor (Vi) were measured. Assuming competitive inhibition, and that unity is negligible compared Km/[S], [I]/e, and [I]/e (where [S], [I], and e respectively represent the total concentrations, of substrate, inhibitor and enzyme), the equilibrium constant (Ki) for dissociation of the inhibitor from the enzyme can be obtained from the dependence of Vo/Vi on [I] shown in the following equation. Vo/Vi=1+[I]/Ki
The activities shown by this assay indicate that the compounds of the invention may be therapeutically useful for treating or preventing various cardiovascular and/or cerebrovascular thromboembolic conditions in patients suffering from unstable angina, acute coronary syndrome, refractory angina, myocardial infarction, transient ischemic attacks, atrial fibrillation, stroke such as thrombotic stroke or embolic stroke, venous thrombosis, coronary and cerebral arterial thrombosis, cerebral and pulmonary embolism, atherosclerosis, deep vein thrombosis, disseminated intravascular coagulation, and reocclusion or restenosis of recanalized vessels. The Ki values measured for each of the example compounds of the invention using this assay are reported in the tables above (as “Hu FXIa Ki (nM)”).
`COC(=O)Nc1ccc2c(c1)NC(=O)CCCC[C@H](C(=O)N1CC[C@@]3(C1)OC(=O)Nc1ccc(Cl)cc13)c1cc-2ccn1` [Example 17b, methyl ((S)-9-((R)-6-chloro-2-oxo-1,2-dihydrospiro[benzo[d][1,3]oxazine-4,3′-pyrrolidine]-1′-carbonyl)-4-oxo-3-aza-1(4,2)-pyridina-2(1,2)-benzenacyclononaphane-2^4-yl)carbamate]: the Ki is > 8750 nM.

Regarding `COC(=O)Nc1ccc2c(c1)NC(=O)CCCCC[C@H](C(=O)N1CC[C@@]3(C1)OC(=O)Nc1ccc(Cl)c(F)c13)c1cc-2ccn1` [Example 18b, methyl ((S)-10-((R)-6-chloro-5-fluoro-2-oxo-1,2-dihydrospiro[benzo[d][1,3]oxazine-4,3′-pyrrolidine]-1′-carbonyl)-4-oxo-3-aza-1(4,2)-pyridina-2(1,2)-benzenacyclodecaphane-2^4-yl)carbamate], the Ki stood at 198 nM.

For the compound `COC(=O)Nc1ccc2c(c1)NC(=O)CCCCC[C@@H](C(=O)N1CCC[C@@]3(C1)OC(=O)Nc1ccc(Cl)c(F)c13)c1cc-2ccn1` [Example 19a, methyl ((R)-10-((R)-6-chloro-5-fluoro-2-oxo-1,2-dihydrospiro[benzo[d][1,3]oxazine-4,3′-piperidine]-1′-carbonyl)-4-oxo-3-aza-1(4,2)-pyridina-2(1,2)-benzenacyclodecaphane-2^4-yl)carbamate], the Ki was determined as 49 nM.

Turning to `COC(=O)Nc1ccc2c(c1)NC(=O)CCCCC[C@H](C(=O)N1CCC[C@@]3(C1)OC(=O)Nc1ccc(Cl)c(F)c13)c1cc-2ccn1` [Example 19b, methyl ((S)-10-((R)-6-chloro-5-fluoro-2-oxo-1,2-dihydrospiro[benzo[d][1,3]oxazine-4,3′-piperidine]-1′-carbonyl)-4-oxo-3-aza-1(4,2)-pyridina-2(1,2)-benzenacyclodecaphane-2^4-yl)carbamate], the Ki was > 875 nM.

On to `Nc1ccc2c(c1)NC(=O)CC/C=C\C[C@@H](C(=O)N1CCC[C@@]3(C1)OC(=O)Nc1ccc(Cl)c(F)c13)c1cc-2ccn1` [Example 20a, (R)-1′-((R,Z)-2^4-amino-4-oxo-3-aza-1(4,2)-pyridina-2(1,2)-benzenacyclodecaphan-7-ene-10-carbonyl)-6-chloro-5-fluorospiro[benzo[d][1,3]oxazine-4,3′-piperidin]-2(1H)-one], for which the Ki was found to be 211 nM.

With `COC(=O)Nc1ccc2c(c1)NC(=O)CC/C=C/C[C@H](C(=O)N1CCC[C@@]3(C1)OC(=O)Nc1ccc(Cl)c(F)c13)c1cc-2ccn1` [Example 21b, methyl ((S,E)-10-((R)-6-chloro-5-fluoro-2-oxo-1,2-dihydrospiro[benzo[d][1,3]oxazine-4,3′-piperidine]-1′-carbonyl)-4-oxo-3-aza-1(4,2)-pyridina-2(1,2)-benzenacyclodecaphanen-2^4-yl)carbamate], the Ki is > 875 nM.

As for `COC(=O)Nc1ccc2c(c1)NC(=O)CC/C=C\C[C@H](C(=O)N1CCC[C@@]3(C1)OC(=O)Nc1ccc(Cl)c(F)c13)c1cc-2ccn1` [Example 22b, methyl ((S,Z)-10-((R)-6-chloro-5-fluoro-2-oxo-1,2-dihydrospiro[benzo[d][1,3]oxazine-4,3′-piperidine]-1′-carbonyl)-4-oxo-3-aza-1(4,2)-pyridina-2(1,2)-benzenacyclodecaphanen-2^4-yl)carbamate], the Ki is > 875 nM.

`COC(=O)Nc1ccc2c(c1)NC(=O)CCCCC(C(=O)N1CCC[C@@]3(C1)OC(=O)Nc1ccc(Cl)c(F)c13)c1cccc-2n1` (stereo partly drawn) [Example 24, methyl (9-((R)-6-chloro-5-fluoro-2-oxo-1,2-dihydrospiro[benzo[d][1,3]oxazine-4,3′-piperidine]-1′-carbonyl)-4-oxo-3-aza-1(2,6)-pyridina-2(1,2)-benzenacyclononaphane-2^4-yl)carbamate]: the Ki was > 875 nM.

For the compound `COC(=O)Nc1ccc2c(c1)NC(=O)CCCC[C@H](C(=O)N1CC[C@@]3(C1)OC(=O)Nc1ccc(Cl)c(F)c13)c1ccnc-2c1` [Example 25b, methyl ((S)-9-((R)-6-chloro-5-fluoro-2-oxo-1,2-dihydrospiro[benzo[d][1,3]oxazine-4,3′-pyrrolidine]-1′-carbonyl)-4-oxo-3-aza-1(2,4)-pyridina-2(1,2)-benzenacyclononaphane-2^4-yl)carbamate], the Ki was > 875 nM.

Consider `COC(=O)Nc1ccc2c(c1)NC(=O)CCCC[C@@H](C(=O)N1CCC[C@@]3(C1)OC(=O)Nc1ccc(Cl)cc13)c1cc(F)cc-2c1` [Example 29a, methyl ((R)-9-((R)-6-chloro-2-oxo-1,2-dihydrospiro[benzo[d][1,3]oxazine-4,3′-piperidine]-1′-carbonyl)-1^5-fluoro-4-oxo-3-aza-1(1,3),2(1,2)-dibenzenacyclononaphane-2^4-yl)carbamate], for which the Ki worked out at 222 nM.

As for `COC(=O)Nc1ccc2c(c1)NC(=O)CCCC[C@H](C(=O)N1CCC[C@@]3(C1)OC(=O)Nc1ccc(Cl)cc13)c1cc(F)cc-2c1` [Example 29b, methyl ((S)-9-((R)-6-chloro-2-oxo-1,2-dihydrospiro[benzo[d][1,3]oxazine-4,3′-piperidine]-1′-carbonyl)-1^5-fluoro-4-oxo-3-aza-1(1,3),2(1,2)-dibenzenacyclononaphane-2^4-yl)carbamate], the Ki is > 8750 nM.

In the case of `COC(=O)Nc1ccc2c(c1)NC(=O)CCCC[C@H](C(=O)N1CCC[C@@]3(C1)OC(=O)Nc1ccc(Cl)c(F)c13)c1cc(F)cc-2c1` [Example 30a, methyl ((S)-9-((R)-6-chloro-5-fluoro-2-oxo-1,2-dihydrospiro[benzo[d][1,3]oxazine-4,3′-piperidine]-1′-carbonyl)-1^5-fluoro-4-oxo-3-aza-1(1,3),2(1,2)-dibenzenacyclononaphane-2^4-yl)carbamate], the Ki is > 8750 nM.

Take `COC(=O)Nc1ccc2c(c1)NC(C(=O)O)CCCCC(C(=O)N1CCC[C@@]3(C1)OC(=O)Nc1ccc(Cl)c(F)c13)c1nc-2c[nH]1` (stereo partly drawn) [Example 33, (Z)-9-((R)-6-chloro-5-fluoro-2-oxo-1,2-dihydrospiro[benzo[d][1,3]oxazine-4,3′-piperidine]-1′-carbonyl)-2^4-((methoxycarbonyl)amino)-1^1H-3-aza-1(4,2)-imidazola-2(1,2)-benzenacyclononaphane-4-carboxylic acid]: the Ki turned out to be 136 nM.

As to `COC(=O)Nc1ccc2c(c1)NC(=O)[C@@H](C)CCC[C@H](NC(=O)N1CCC[C@@]3(C1)OC(=O)Nc1ccc(Cl)cc13)c1cc-2ccn1` [Example 39, methyl ((5S,9S)-9-((R)-6-chloro-2-oxo-1,2-dihydrospiro[benzo[d][1,3]oxazine-4,3′-piperidine]-1′-carboxamido)-5-methyl-4-oxo-3-aza-1(4,2)-pyridina-2(1,2)-benzenacyclononaphane-2^4-yl)carbamate], the Ki came out at 455 nM.

Take `COC(=O)Nc1ccc2c(c1)NC(=O)[C@H](C)CCC[C@H](NC(=O)N1CCC[C@@]3(C1)OC(=O)Nc1ccc(Cl)cc13)c1cc-2ccn1` [Example 40, methyl ((5R,9S)-9-((R)-6-chloro-2-oxo-1,2-dihydrospiro[benzo[d][1,3]oxazine-4,3′-piperidine]-1′-carboxamido)-5-methyl-4-oxo-3-aza-1(4,2)-pyridina-2(1,2)-benzenacyclononaphane-2^4-yl)carbamate]: the Ki was > 5000 nM.

For the compound “(R)-6-chloro-1′-((R,Z)-2^4-fluoro-4-oxo-11H-3-aza-1(4,2)-imidazola-2(1,2)-benzenacyclononaphane-9-carbonyl)spiro[benzo[d][1,3]oxazine-4,3′-pyrrolidin]-2(1H)-one [Example 5b]”, the Ki is 180 nM.
